US11548855B2, “Pyrazole amide compound and application thereof, and fungicide” (Shandong United Pesticide Industry Co. Ltd., priority 2017, dated 2023)

Key:
Type in all cases: in vivo
[1] = system: corn rust (Puccinia sorghi); test: Greenhouse pot test, corn rust; conditions: Puccinia sorghi, 168 h, read-out: Control effect (%) Corn rust
Experimental: (§1) Test method: each of the test compounds in Table 1 was dispensed to 5 wt % emulsifiable concentrate (hereinafter referred to as 5% EC). The greenhouse pot test was used in each experiment, and the effective concentrations of each compound were illustrated in Table 1.
Corn rust: two-three leaf stage potted corn seedling with uniform growth was selected and made foliar spray treatment with 5% EC, the blank control sprayed with clean water was additionally arranged, three replicates were carried out. After 24 h, the leaves of the host plants were inoculated with sporangial suspensions of the fungi corn rust (Puccinia sorghi), the plants were stored in humidity chamber (temperature: lighting 25° C., dark 20° C., relative humidity 95-100%) and then transferred to greenhouse (25±1° C.) 24 h after infection. After 7 days, the screening results were investigated according to the disease incidence condition of blank control.
(§2) The investigation method: “Guidelines for the field efficacy trials of pesticides” was adopted as the grading standard, and the control effect in a unit of % was calculated based on the disease index. Disease index=Σ(number of diseased leaves at each grade×relative grade value)×100/(total number of leaves×9); Control effect (%)=(disease index of control−disease index of treated)×100/disease index of control;
(§3) The compounds provided by the present disclosure and some control compounds were tested by the same methods in the Test example 1, except that the effective concentrations of the compounds in this Test example are shown in Table 2.

[2] = system: wheat powdery mildew (Erysiphe graminis); test: Greenhouse pot test, wheat powdery mildew; conditions: Blumeria graminis, 168 h, read-out: Control effect (%) Wheat powdery mildew
Text: as §1
Wheat powdery mildew: two-leaf stage potted wheat seedling with uniform growth was selected and made foliar spray treatment with 5% EC, the blank control sprayed with clean water was additionally arranged, three replicates were carried out. After 24 h, the leaves of the host plants were inoculated by shake-down method with sporangial suspensions of the fungi wheat powdery mildew (Erysiphe graminis), the plants were stored in a greenhouse (25±1° C.). After 7 days, the screening results were investigated according to the disease incidence condition of blank control.
as §2, §3

cucumber powdery mildew [3] = test: Greenhouse pot test, cucumber powdery mildew; conditions: Cucumis sativus, 192 h, greenhouse pot, read-out: Control effect (%) Cucumber powdery mildew
Experimental: as §1
Cucumber powdery mildew: cucumber seedling in a true leaf period with uniform growth was selected, and dried in the shade for 24 h after spray treatment. Fresh cucumber powdery mildew spores on the cucumber leaves were collected and washed, and filtered through a double gauze to prepare a spores suspension with concentration of about 100,000/mL, then spray inoculation was applied. The test materials inoculated were moved into a greenhouse (lighting 21-23° C.), after 8 days, the grading investigation was carried out according to the disease incidence condition of blank control, and the control effect in a unit of % was calculated according to disease index.
as §2, §3

[4] = system: rice sheath blight fungi (Rhizoctonia solami); test: Greenhouse pot test, rice sheath blight
Experimental: as §3
In addition, the test method for rice sheath blight as following steps:
The potted rice seedling with uniform growth was selected, and dried in the shade for 24 h after spray treatment, then inoculated 3 blocks of 0.25 cm^2 rice sheath blight fungi (Rhizoctonia solami) at the base of seedling by clamp inoculation bacterium block method. The test materials inoculated were moved into greenhouse (temperature: lighting 28° C., dark 25° C., relative humidity 95%), after 7 days, investigate 5 leaves of per block treatment, the grading investigation was carried out according to the disease incidence condition of sheaths and leaves of rice, “Guidelines for the field efficacy trials of pesticides” was adopted as the grading standard, the disease index was calculated according to the grading standard, and the control effect in a unit of % was calculated according to disease index.

cucumber powdery mildew [5] = test: Field trial, cucumber powdery mildew; conditions: sprayed twice
Experimental: I. Cucumber Powdery Mildew Test Method:
Spray method: Stein and leaf spray (Applicator: Xinkangda lithium battery electric sprayer).
Test crop: cucumber (cultivars: Tianjiao7)
The test was carried out in Shenyang, the test field was loam with rich organic matters and normal management of fertilizer and water, and no other pesticide was applied during the test.
The arrangement of the test plot was random block permutation; the area of the test plot: 15 m^2; repeat times: 3 times; spray time and frequency: period between Sep. 28, 2018 and Oct. 11, 2018, twice. Spray dosage: each treatment was repeated 3 times, the total water consumption was 8 L. No other pesticide was applied during the test. […] 15-20 days after the second treatment, the incidence of disease spots in each plot was investigated.
The incidence of disease spots in each plot was investigated by randomly selecting 4 samples/plot and 2 plants/samples, all leaves/plant, the incidence of the whole plant was recorded by counting the number of disease leaves and determining the incidence grade.
Grading standard (in units of leaves):
Grade 0: no leaf-spot area;
Grade 1: the ratio of leaf-spot area to leaf area is less than 5%;
Grade 3: the ratio of leaf-spot area to leaf area is between 6-10%;
Grade 5: the ratio of leaf-spot area to leaf area is between 11-20%;
Grade 7: the ratio of leaf-spot area to leaf area is between 21-40%;
Grade 9: the ratio of leaf-spot area to leaf area is more than 40%;
According to the relevant content of the “Guidelines for the field efficacy trials of pesticides of the People's Republic of China (PRC)”, the disease index was calculated according to the grading standard, and the control effect in a unit of % was calculated based on the disease index, and the test data of significance analysis was performed by using DPS evaluation system (DMRT).

Cn1cc(C(=O)Nc2ccccc2Oc2ccc(C(F)(F)F)cc2C(F)(F)F)c(C(F)F)n1 [Compound 1]
pest or weed control at 1.5625 µg/mL ([1]; 1.5625 mg/L): 100% | pest or weed control at 2.5 µg/mL ([1]; 2.5 mg/L): 100% | pest or weed control at 3.125 µg/mL ([1]; 3.1250 mg/L): 100% | pest or weed control at 6.25 µg/mL ([1]; 6.25 mg/L): 100% | pest or weed control at 10 µg/mL ([1]; 10 mg/L): 100% | pest or weed control at 25 µg/mL ([1]; 25 mg/L): 100% | pest or weed control at 100 µg/mL ([1]; 100 mg/L): 100% | pest or weed control at 1.5625 µg/mL ([2]; 1.5625 mg/L): 85% | pest or weed control at 2.5 µg/mL ([2]; 2.5 mg/L): 100% | pest or weed control at 3.125 µg/mL ([2]; 3.1250 mg/L): 100% | pest or weed control at 6.25 µg/mL ([2]; 6.25 mg/L): 100% | pest or weed control at 10 µg/mL ([2]; 10 mg/L): 100% | pest or weed control at 25 µg/mL ([2]; 25 mg/L): 100% | pest or weed control at 100 µg/mL ([2]; 100 mg/L): 100% | pest or weed control at 1 µg/mL (cucumber powdery mildew [3]; 1 mg/L): 90% | pest or weed control at 1.5625 µg/mL (cucumber powdery mildew [3]; 1.5625 mg/L): 95% | pest or weed control at 2.5 µg/mL (cucumber powdery mildew [3]; 2.5 mg/L): 98% | pest or weed control at 3.125 µg/mL (cucumber powdery mildew [3]; 3.1250 mg/L): 100% | pest or weed control at 6.25 µg/mL (cucumber powdery mildew [3]; 6.25 mg/L): 100% | pest or weed control at 10 µg/mL (cucumber powdery mildew [3]; 10 mg/L): 100% | pest or weed control at 25 µg/mL (cucumber powdery mildew [3]; 25 mg/L): 100% | pest or weed control at 100 µg/mL (cucumber powdery mildew [3]; 100 mg/L): 100% | Control effect (%) Rice sheath blight ([4]; 0.625 mg/L): 75% | Control effect (%) Rice sheath blight ([4]; 1 mg/L): 80% | Control effect (%) Rice sheath blight ([4]; 1.5625 mg/L): 85% | Control effect (%) Rice sheath blight ([4]; 2.5 mg/L): 90% | Control effect (%) Rice sheath blight ([4]; 3.1250 mg/L): 100% | Control effect (%) Rice sheath blight ([4]; 10 mg/L): 100% | Control effect (%) Cucumber powdery mildew (cucumber powdery mildew [5]; 100 mg/L): 90.0% | Control effect (%) Cucumber powdery mildew (cucumber powdery mildew [5]; 200 mg/L): 96.5%
